According to patent US10208007B2, “Use of strigolactones and strigolactone analogs for treating proliferative conditions” (The State of Israel, Ministry of Agriculture & Rural …, priority 2011, dated 2019):

Columns and labels:
[1] = tested on: cancer derived cell lines; experiment: XTT viability assay, all cell lines tested; type: cell-based, human; conditions: span over the cell lines
Procedure: MCF-10A cells were used as non-tumorigenic line and various cell lines derived from other types of solid tumors were compiled including colon (HCT116, HT29, SW480), prostate (PC3, DU145, LNCaP), lung (A549), osteosarcoma (U20S) and Melanoma (T11) cell lines. A non-adherent leukemic cancer cell line, K562, was also included to further diversify the cohort (FIG. 7).
(§1) Viability was assayed after 3 days (XTT, ATCC). IC50 concentrations are indicated (Table 3 above).

[2] = tested on: MCF-7 mammospheres; experiment: cells; type: cell-based, human; conditions: for Mammosphere numbers (>100 μM), percentage of vehicle treated control: 5 days
Procedure: (§2) Given the similar effects the other strigolactone analogs had on breast cancer cell line growth compared to GR-24, we anticipated that the strigolactone analogs would also have similar effects on MCF-7 primary mammosphere formation (FIG. 10): MCF-7 cells were seeded in MEBM media into low attachment, 96 well plates in duplicate at 3000 cells per well. The same day the indicated doses of strigolactone analogs were added. After 7 days representative images were taken. […] Like GR-24, the doses required to inhibit mammosphere formation are lower than that required to inhibit proliferation in monolayer cultures (5 fold lower; ST-362 and MEB-55, 3 fold lower; ST-357). To determine if the sensitivity to strigolactone analogs treatments was specific to mammosphere formation or whether it extended to the integrity and survival of mature mammospheres, MCF-7 mammospheres were grown in the absence of strigolactone analogs and after 7 days (or once mammospheres had reached a mean diameter of over […]), strigolactone analogs were added to the growth media (FIG. 10) at the indicated doses. MCF-7 cells were seeded in MEBM media into low attachment, 96 well plates in duplicate at 3000 cells per well and primary mammospheres left to grow for 7 days. At which time the indicated doses of strigolactone analogs were added to the media. FIG. 11A is a representative image of mammospheres treated with 5 ppm concentrations, showing dissociation after 2 days of exposure to strigolactone analogs. […] Following […] treatment, mammospheres were monitored visually after 24 and 48 hours. No changes were observed following 24 hours of strigolactone analogs treatment. […] At 5 ppm concentrations EG-5, EG-9C, ST-357, ST-362 and MEB-55 reduce mammosphere numbers from 86.7+6.8 (vehicle control) to 23+5, 38+6.2, 6+2, 8.3+3.5 and 9.3+1.5%, respectively. At 2.5 ppm concentrations, mammosphere numbers were reduced to 35+6.9 (EG-5), 52+12.3 (EG-9C), 22+8.5 (ST-357), 6+1.7 (ST-362) and 20.7+8.6 (MEB-55). […] XTT viability assays were also carried out on dissociated mammospheres. At concentrations of 5 ppm, EG-5, ST-362 and MEB-55 reduced viability to 3.7+0.5, 25.5+8.8 and 4.6+1.1% respectively.

[3] = tested on: HCT116 cells; experiment: Annexin V / PI staining; type: cell-based, human; conditions: 48 hours, from 3.6%
Procedure: Cells were cultured for 48 hours under the same conditions as those used for the DNA content/cell cycle analysis. All the cells were collected and resuspended in 100 μl 1× Annexin V Binding Buffer (BD Biosciences, San Jose, Calif., USA). 2 μl FITC-Annexin V (BD Biosciences) was added and incubated for 10 min in the dark (room temperature). Cells were then stained with PI (Sigma, Saint Louis, Mo., USA) to a final concentration of 5 μg/ml and the cells were incubated at room temperature for 15 min in the dark. Then, 400 μl of Annexin V binding buffer were added and flow cytometry was performed using a BD FACSCalibur flow cytometer. Cells were considered to be apoptotic if they were Annexin V+/PI− (early apoptotic) and Annexin V+/PI+ (late apoptotic). Each analysis was performed using at least 20,000 events.
Chromosome condensation at mitosis is accompanied by phosphorylation of histone H3. Accordingly, in order to determine if cells were arresting at G2 or M phase, HCT116 cells were analyzed for pS10 Histone H3 following strigolactone analogs exposure. […] To further quantify whether the growth inhibition observed in-vitro following strigolactone treatment was due in part to apoptosis, HCT116 cells were dual stained with Annexin V and PI (Prodidium Iodide). Annexin V staining indicate the inversion of the inner leaflet of the plasma membrane an early event of apoptosis. Late apoptosis is characterized by loss of membrane integrity and cells become permeable to PI. […] Cells were incubated for 48 hours and then co-stained with annexin-V and PI (FIG. 12F). Following treatment with 10 ppm and 15 ppm MEB-55, the percentage of late apoptotic cell increased from 3.6% to 62% and 85% respectively (FIG. 12F, lower panel). […] Dual Annexin V/PI staining analysis was also carried out on two other colon cancer cell lines, (SW480, HT29) following strigolactone treatment. Increased apoptosis was also observed in these lines following MEB-55 treatment in a dose dependent manner (FIG. 12D).

[4] = tested on: MCF-7 mammospheres; experiment: Mammosphere formation; type: cell-based, human; conditions: 5 ppm and above
Procedure: Adherent cells were gently trypsinized, (0.05% trypsin/EDTA) washed twice in PBS and filtered through a […] cell sieve to obtain a single cell suspensions. Cells were diluted to a concentration of 10,000 cell/ml in serum-free phenol-red free MEBM (MEGM Bulletkit, Lonza) supplemented with 5 μg/ml bovine insulin, 20 ng/ml recombinant epidermal growth factor, 20 ng/ml basic fibroblast growth factor (Gibco), 1×B27 supplement, 0.5 μg/ml hydrocortisone (MEGM Bulletkit, Lonza). For MDA-MB-231 mammosphere cultures serum-free phenol red-free CnT-27 medium with growth additives (CellnTEC Advanced cell systems, Bern, Switzerland) was used as previously described. 0.1 ml was seeded per well of a Ultralow attachment 96 well plates. The following day the indicated doses of GR-24 (ppm) or vehicle alone (0.6% acetone f/c) were added. Media was replenished every 3-4 days. Self-renewal capacity of the mammospheres was determined by re-plating and producing further generations of mammospheres. Secondary mammospheres were cultivated by dissociation (trypsinization with gently vortexing) of 10-14 day old primary mammospheres. Single cell suspensions were obtained as described above.
as §2

[5] = tested on: HCT116; experiment: XTT viability assay; type: cell-based, human; conditions: HCT116, 3 days
Procedure: as §1

[6] = tested on: HT-29; experiment: XTT viability assay; type: cell-based, human; conditions: HT-29, 3 days
Procedure: as §1

[7] = tested on: MCF-7; experiment: XTT viability assay; type: cell-based, human; conditions: MCF-7, 3 days
Procedure: as §1

[8] = tested on: LNCaP; experiment: XTT viability assay; type: cell-based, human; conditions: 3 days
Procedure: as §1

[9] = tested on: DU145; experiment: XTT viability assay; type: cell-based, human; conditions: DU145, 3 days
Procedure: as §1

[10] = tested on: K562; experiment: XTT viability assay; type: cell-based, human; conditions: K562, 3 days
Procedure: as §1

[11] = tested on: SW480; experiment: XTT viability assay; type: cell-based, human; conditions: SW480, 3 days
Procedure: as §1

[12] = tested on: T47D; experiment: XTT viability assay; type: cell-based, human; conditions: 3 days
Procedure: as §1

[13] = tested on: U20S; experiment: XTT viability assay; type: cell-based, human; conditions: 3 days
Procedure: as §1

[14] = tested on: PC3; experiment: XTT viability assay; type: cell-based, human; conditions: PC3, 3 days
Procedure: as §1

[15] = tested on: MDA-MB-436; experiment: XTT viability assay; type: cell-based, human; conditions: MDA-MB-436, 3 days
Procedure: as §1

[16] = tested on: MDA-MB-231; experiment: XTT viability assay; type: cell-based, human; conditions: MDA-MB-231, 3 days
Procedure: as §1

[17] = tested on: MCF10A; conditions: 3 days
Procedure: Results are presented as Average±SD of replicate analyses and are either representative of, or inclusive of at least two independent experiments. Statistical analyses were performed using student's t-test (2-tailed, paired) versus vehicle controls and are regarded as being significant when P<0.05(*). Higher powers (p<0.01, p<0.001) are also employed and indicated in each figure legend. IC50 doses for strigolactone analogs were calculated by interpolation of the sigmoidal dose response curves (Graphpad Prism 4.0 software). Briefly, linear regression was performed between relevant y-axis data points and interpolation calculated for x-axis unknowns.
Cells were seeded into a 96 well plates at 1500 cells per well (MCF-10, PC3, DU145, MDA-MB-231, MDA-MB-436, HT-29, SW480), 1000 cells per well (K562) or 4000 cells per well (MCF-7, HCT116) in triplicate in normal growing media (with the exception of K562, a non-adherent leukemic cell line which was seeded in phenol-free DMEM supplemented with 10% charcoal-stripped FBS). The following day media was replaced with phenol-free DMEM supplemented with 10% charcoal stripped FBS and the indicated final concentrations of strigolactone analog or vehicle (acetone) alone. Cells were incubated for 3 days, at which time XTT (2,3,-bis(2-methoxy-4-nitro-5-sulfophenyl)-5-[(phenylamino)-carbonyl]-2H-tetrazolium inner salt) reduction was used to quantify viability according to manufacturer's instruction (ATCC). Cells were incubated with XTT reagent for 2-3 hours at 37° C. in a humidified 5% CO2-95% air atmosphere. Absorbance was recorded by a photometer [sequence]luor Plus, Tecan (Salzburg, Austria) at 450 nm with 750 nm of reference wavelength. Cell survival was estimated from the equation: % cell survival=100×(At−Ac), where At and Ac are the absorbencies (450 nm) of the XTT colorimetric reaction (ATCC) in treated and control cultures respectively minus non-specific absorption measured at 750 nm. Absorbance of medium alone was also deducted from specific readings.
MCF-10A cells were included as an example of a non-tumorigenic line. XTT viability assays were carried out in the presence of the indicated doses of strigolactone analogs following 3 days of treatment. Resulting differences in absorbance readings following strigolactone analogs treatment reflect changes in proliferation and cell survival (FIG. 7A-C): Cells were seeded into 96 well plates in normal growing media. The following day media was replaced with phenol-free DMEM supplemented with 10% charcoal-stripped serum and the indicated doses of strigolactone analog or vehicle (cont.) alone. Viability was assayed after 3 days (XTT, ATCC).

[18] = tested on: MDA-231 cells; experiment: Combination with cisplatin, Combination Index (Chou and Talalay); type: cell-based, human; conditions: cisplatin line of Table 8
Procedure: To determine if these concentrations of ST-362 can enhance the efficacy of low doses of cisplatin, MDA-231 cells were treated with varying concentrations of cisplatin in the presence of ST-362 IC50 and IC20 concentrations. The combination of ST-362 with low doses of cisplatin ranging for 0.01 to 0.1 μM produced a greater effect than each of the drugs alone (FIG. 20).

[19] = tested on: P38; experiment: Immunoblot of HSP27 phosphorylation with P38 inhibitor; type: cell-based, human; conditions: MDA-231 cells, 2 μM and 10 μM, 1 hour pretreatment

## CC1=CC(O/C=C2\Cc3c(n(C)c4ccc(-c5ccc(N(C)C)cc5)cc34)C2=O)OC1=O (racemic) [EG-9c, (±) (2E)-4-methyl-2-(4-methyl-5-oxo-2,5-dihydrofuran-2-yloxymethylene)-7-[(4-dimethylamino)-phenyl]-1,4-dihydro-2H-cyclopenta[b]indol-3-one]
[1]
  IC50 concentration over all cell lines tested: 10-15 ppm
[2]; 2.5-5 ppm, after 48 hours
  Mammosphere morphology: less dramatic morphological change
[2]; 2.5 ppm
  Mammosphere numbers (>100 μM), percentage of vehicle treated control: 52+12.3%
[2]; 5 ppm, vehicle control 86.7+6.8
  Mammosphere numbers (>100 μM), percentage of vehicle treated control: 38+6.2%
[3]; 10 ppm
  Percentage of late apoptotic cells (Annexin V+/PI+): 12.5%
[3]; 15 ppm
  Percentage of late apoptotic cells (Annexin V+/PI+): 43.3%
[4]
  Mammosphere formation: completely block mammosphere formation
[5]
  IC50 at 72 h: >15 ppm
[6]
  IC50 at 72 h: >15 ppm
[7]
  IC50 at 72 h: 17.3 ppm
[8]
  IC50 at 72 h: >20 ppm
[9]
  IC50 at 72 h: 15 ppm
[10]
  IC50 at 72 h: >15 ppm
[11]
  IC50 at 72 h: >15 ppm
[12]
  IC50 at 72 h: >10 ppm
[13]
  IC50 at 72 h: 4.5 ppm
[14]
  IC50 at 72 h: >15 ppm
[15]
  IC50 at 72 h: >10 ppm
[16]
  IC50 at 72 h: >10 ppm
[17]
  IC50 at 72 h: >15 ppm

## N.N.[Cl][Pt][Cl] [Cisplatin, cisplatin]
[18]
  CI: 0.8

## C[S+]([O-])c1ccc(-c2nc(-c3ccncc3)c(-c3ccc(F)cc3)[nH]2)cc1 (stereo not shown) [SB203580]
[19]
  HSP27 phosphorylation induced by ST-362 and MEB-55: sufficient to inhibit HSP27 phosphorylation
